Reference: patent publication US11685953B2, “Biomarkers and methods of treating cancer” (ASTRAZENECA AB, priority 2015, dated 2023)

How the values were obtained:
pPRAS40 = assay: Western blot of pPRAS40 (readout of AKT activity) in MCF7 parental and CR2.5 cells; type: cell-based, human; conditions: MAP3K1-deficient MCF7 CR2.5 cell line, overnight incubation (FIG. 3)
Method: (§1) Control MCF7 (parental) and MAP3K1-deficient (CR2.5) cell lines cultured in full growth media and treated with either Compound A, Compound B and GDC-0068 as described previously. Following overnight incubation, cell lysates are prepared and analysed by Western blotting using antibodies specific for phosphorylated proteins in the PI3K pathway (FIG. 3).

pS6 RP (S235/236) = assay: Western blot of pS6 RP (distal readout of PI3Kα activity) in MCF7 parental and CR2.5 cells; type: cell-based, human; conditions: overnight incubation (FIG. 3)
Method: as §1

pAKT (T308) = assay: Immunoblot of phosphorylated AKT (T308) in PIK3CA mutant breast cancer cell lines; type: cell-based, human
Method: Protocol for Measuring Phosphorylated AKT (T308) in MCF7, T47D Cells.
Low-passage MCF7 and T47D cells were obtained from AZ Cell Bank Collection and cultured as described previously (Avivar-Valderas et al., MCB, 31(17):3616-29, 2011). Wild-type and MCF10A-PI3Kα^H1047R were provided by Horizon Discovery.
After culture, cells were lysed, and protein was analyzed by immunoblotting (IB) (Avivar-Valderas et al., MCB, 31(17):3616-29, 2011). Membranes were blotted using antibodies against MAP3K1 (Santa Cruz) phospho AKT (Thr308) (Cell Signaling Technology) and Vinculin (Sigma). Bound antibodies were detected with horseradish peroxidase (HRP)-conjugated secondary antibodies and chemiluminescence assays (Avivar-Valderas et al., MCB, 31(17):3616-29, 2011).
The effect of MAP3K1 loss of expression on the pharmacological activity of Compound A using the cell-lines generated via siRNA transfection was examined by monitoring the level of inhibition of signalling readouts downstream of PI3Kalpha. A major readout of the pathway is the phosphorylation of AKT at Threonine 308. This phosphorylation is carried out by PDK1, itself activated by PI3K-generated PIP3 (phosphatidyl inositol 3,4,5-trisphosphate). Further pathway readouts are phosphorylation of PRAS40 (Proline-Rich AKT1 Substrate) at Thr246. […]

MCF7 parental acini = assay: 3D-Matrigel culture, acinus volume, MCF7 parental; type: cell-based, human; conditions: 500 nM every 3 days until day 15; control cultures (MCF7 parental) (FIG. 7A left)
pS6 RP = pS6 RP staining of 3D-Matrigel acini, MCF7 parental and MCF7 CR2.5; type: cell-based, human; conditions: 2 μM per FIG. 7B legend
Method: For 3D cultures, cells were plated in commercially available growth factor-reduced Matrigel (Mgel) (BD Biosciences, San Diego, Calif.) and grown (Avivar-Valderas et al., MCB, 31(17):3616-29, 2011). […] 3D-Matrigel MCF10A acinar structures were fixed at day 15 and processed for size measurement and IF microscopy analysis (Avivar-Valderas et al., MCB, 31(17):3616-29, 2011)
ECM-attached cells (located in the outer rim) were positive for pS6 RP in parental acini. As predicted, the number of pS6 RP positive cells was greater in MCF7-CR2.5 (FIG. 7B, grey bars).

MCF7 parental cells = assay: IncuCyte proliferation assay, MCF7 parental cells; type: cell-based, human; conditions: 500 nM; parental MCF7 cells (FIG. 4C-D, FIG. 6B)
Method: (§2) MCF7 and MCF10A cells were plated in 96 well plates at a density of 2000 cells per well in RPMI media containing 10% FBS or DMEM/F12 media containing 5% of HS (horse serum) respectively. After incubation at 37° C. for 16 hours, concentrations of Compound A, Compound B (30 μM to 117 nM) or AZD2014 (15 μM to 66 nM) were added to the assay plates. Plates were then placed in the IncuCyte and scheduled to be scanned every 6 h for 3 days. Relative percentage of confluence data was normalized to control DMSO treated cells and fitted to a nonlinear regression curve using PRISM (Graphpad).

[1] = tested on: MCF10A-H1047R parental cells; assay: IncuCyte proliferation assay, MCF10A-H1047R parental cells; type: cell-based; conditions: 500 nM; MCF10A-H1047R parental cells (FIG. 4, FIG. 6)
Method: as §2

MCF7-CR1.4 cells = assay: IncuCyte proliferation assay, MAP3K1 mutant clone MCF7-CR1.4; type: cell-based, human
MCF7 CR2.5 acini = assay: 3D-Matrigel culture, acinus volume, MAP3K1-deficient MCF7 CR2.5; type: cell-based, human; conditions: 500 nM every 3 days until day 15; MAP3K1-deficient acini (FIG. 7A left)
[2] = tested on: MAP3K1-deficient MCF10A-H1047R acini; assay: 3D-Matrigel culture, cleaved caspase 3 (apoptosis), MAP3K1-deficient MCF10A-H1047R acini; type: cell-based; conditions: 15 days (FIG. 7A right)
Method: (§3) For 3D cultures, cells were plated in commercially available growth factor-reduced Matrigel (Mgel) (BD Biosciences, San Diego, Calif.) and grown (Avivar-Valderas et al., MCB, 31(17):3616-29, 2011). Prior to fixation for IF analysis, acini were treated with 500 nM Compound B every 3 days until the endpoint (day 15). 3D-Matrigel MCF10A acinar structures were fixed at day 15 and processed for size measurement and IF microscopy analysis (Avivar-Valderas et al., MCB, 31(17):3616-29, 2011)
(§4) This might be explained by an increase of cell proliferation or/and reduction of cell death (anoikis in ECM-deprived cells). To test the latter, staining with caspase 3 (anoikis readout) and confocal equatorial sections to analyse lumen formation (main compartment in which anoikis takes place) were carried out.

[3] = tested on: MCF10A-H1047R control acini; assay: 3D-Matrigel culture, cleaved caspase 3 (apoptosis), MCF10A-H1047R control acini; type: cell-based; conditions: 15 days (FIG. 7A right)
Method: as §3, §4

[4] = tested on: MCF10A-H1047R CR2.3 cells; assay: IncuCyte proliferation assay, MAP3K1 mutant clone H1047R-CR2.3; type: cell-based
Method: as §2

[5] = MAP3K1-deficient MCF7 cells (CR2.5)

Row | SMILES | inhibition of pPRAS40 (pPRAS40) | inhibition of pS6 RP activity (pS6 RP (S235/236); [5]) | inhibition of pS6 RP activity (pS6 RP (S235/236); parental MCF7 cells) | phosphorylation of AKT on Thr308 (pAKT (T308); 250 nM for 24 hours, control cells transfected with control siRNA duplex inactive on MAP3K1 mRNA (MCF7, T47D; FIG. 2A)) | inhibition of PI3K signalling, effect on pAKT on Thr308 by Western blotting (pAKT (T308); MAP3K1-deficient MCF7 clones CR1.4 and CR2.5 compared to parental MCF7 (FIG. 2B)) | acini volume (MCF7 parental acini) | number of positive pS6 RP cells, reduction by treatment (pS6 RP; MCF7 CR2.5 acini) | number of positive pS6 RP cells (pS6 RP; parental MCF7 acini) | effect on proliferation (growth) (MCF7 parental cells) | effect on proliferation [1] | effect on proliferation (MCF7-CR1.4 cells; 500 nM, MCF7-CR1.4 (FIG. 4C-D, FIG. 6B)) | increase of IC50 for proliferation relative to parental cells (MCF7-CR1.4 cells; MCF7-CR1.4 relative to parental MCF7 cells (FIG. 5)) | acini volume, reduction by treatment (MCF7 CR2.5 acini) | increase in number of positive cleaved caspase 3 events [2] | number of positive cleaved caspase 3 events [3] | effect on proliferation ([4]; 500 nM, MAP3K1-mutant line derived from MCF10A-H1047R (FIG. 4, FIG. 6)) | increase of IC50 for proliferation relative to parental cells ([4]; clone H1047R-CR2.3 relative to MCF10A-H1047R parental cells (FIG. 5))
1 | CCn1nc(C2CCN(C(=O)CCO)CC2)nc1-c1cnc(N)c(-c2nnc(C(C)(C)C)o2)n1 [Compound A, 1-(4-(5-(5-amino-6-(5-tert-butyl-1,3,4-oxadiazol-2-yl)pyrazin-2-yl)-1-ethyl-1H-1,2,4-triazol-3-yl)piperidin-1-yl)-3-hydroxypropan-1-one] | resistant | resistant to all treatments | efficiently inhibit | profound reduction | less pronounced |  |  |  |  |  |  |  |  |  |  |  | 
2 | NC1(C(=O)N[C@@H](CCO)c2ccc(Cl)cc2)CCN(c2ncnc3[nH]ccc23)CC1 [Compound B, 4-amino-N-[(1S)-1-(4-chlorophenyl)-3-hydroxy-propyl]-1-(7H-pyrrolo[2,3-d]pyrimidin-4-yl)piperidine-4-carboxamide] | resistant | resistant to all treatments | efficiently inhibit |  |  | significantly reduced | reverted | strongly reduced | able to reduce growth | able to inhibit the proliferation | no effect | 3 fold | partially reverted | not significant | significant increase | no effect | 10 fold
3 | CC(C)NC[C@@H](C(=O)N1CCN(c2ncnc3c2[C@H](C)C[C@H]3O)CC1)c1ccc(Cl)cc1 [GDC-0068, ipatasertib, reference compound] | resistant | resistant to all treatments | efficiently inhibit |  |  |  |  |  |  |  |  |  |  |  |  |  | 
